The values below come from US5534521A, “Benzimidazole compounds” (G. D. Searle & Co., priority 1994, dated 1996).

One experiment has as its target T1, 5-HT3 receptor (Rattus norvegicus, UniProt P35563).
T1 construct: Brain cortices were obtained from male rats and a membrane fraction prepared by standard techniques; from tissue; host or cells: rat brain cortex membranes (male rats)
T1 sequence (P35563 24-483): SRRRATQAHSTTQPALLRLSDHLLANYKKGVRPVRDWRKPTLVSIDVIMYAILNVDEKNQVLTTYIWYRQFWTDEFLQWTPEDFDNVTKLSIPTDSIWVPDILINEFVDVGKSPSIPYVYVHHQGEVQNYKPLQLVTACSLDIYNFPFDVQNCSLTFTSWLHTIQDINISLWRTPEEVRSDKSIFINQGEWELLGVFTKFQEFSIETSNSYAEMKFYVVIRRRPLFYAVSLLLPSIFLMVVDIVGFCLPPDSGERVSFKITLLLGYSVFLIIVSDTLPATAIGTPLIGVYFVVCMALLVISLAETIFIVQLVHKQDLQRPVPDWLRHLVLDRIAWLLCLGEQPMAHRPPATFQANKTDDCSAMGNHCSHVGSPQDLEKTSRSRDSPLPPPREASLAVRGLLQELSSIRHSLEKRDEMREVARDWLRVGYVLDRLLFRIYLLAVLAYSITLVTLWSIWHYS
Nature of the experiment: Serotonin (5-HT3) radioligand receptor binding, [3H]-GR65630, rat brain cortex membranes. The method, then:
(§1) 5-HT4 agonist activity was determined in the in vitro rat tunica muscularis mucosae (TMM) assay. (Baxter et al., Naunyn Schmied Arch. Pharmacol, 1991, 343, 439). The 5-HT4 agonist or antagonist activity and/or 5-HT3 antagonist activity of the compounds of the invention herein, can be determined by the assays as described herein, without undue experimention.
GR65630 binds to the 5-HT3 receptor. Brain cortices were obtained from male rats and a membrane fraction prepared by standard techniques. 0.04 mg of membrane prep was incubated with 0.2 nM […] for 60 minutes at 22° C. […] Kilpatrick G. J., Jones B. J. and Tyers M. B. Identification and distribution of 5-HT3 receptors in rat brain using radioligand binding assay. Nature, 330: 746-748, 1987.

The next experiment relates to 5-HT3. As to the kind of experiment: Bezold-Jarisch Reflex (5-HT-induced bradycardia in anesthetized mice). To be noted: i.p., 30 min before 5-HT (0.25 mg/kg i.v.), >50 percent reduction in bradycardic response vs vehicle. The format is in vivo. The method, then: as §1
The compound to be evaluated was administered i.p. (mg/kg) to a group of 3 mice.
This method has been described by Saxena, P. R. and Lawang, A., Arch. Int. Pharmacodyn., 277:235-252, 1985.

For a further experiment, the target named is T2, 5-HT4 receptor (Rattus norvegicus, UniProt Q62758).
T2 construct: One 2 cm segment of intrathoracic esophagus proximal to the diaphragm was removed from male rats; from tissue; host or cells: rat intrathoracic esophagus, inner tunica muscularis mucosae (male rats)
As to the kind of experiment: cell-based. To be noted: carbachol (3 μM) contracted rat tunica muscularis mucosae, 37° C., cumulative addition, tissues from 5 rats; read-out: 5-HT4 Agonism (Rat TMM) In Vitro Assay: EC50 Values. The method, then: as §1
Agonist activity was determined utilizing relaxation of carbachol-contracted rat tunica muscularis mucosae. One 2 cm segment of intrathoracic esophagus proximal to the diaphragm was removed from male rats, weighing approximately 300 gm, and the outer muscle layers removed. The inner tunica muscularis mucosa was mounted under 0.2-0.3 g of tension in a tissue bath containing oxygenated Tyrode's solution at 37° C. […] Following a 30 min equilibrium period, tissues were isometrically contracted with carbachol (3 μM) to obtain a tonic contraction. A stable plateau was obtained within 20 min when test compound was added cumulatively to relax the muscle strip. EC50 values were obtained for each agonist in tissues from 5 rats.

pEC50, pKi: −log10 of the molar value.

T2 sequence (Q62758 whole entry): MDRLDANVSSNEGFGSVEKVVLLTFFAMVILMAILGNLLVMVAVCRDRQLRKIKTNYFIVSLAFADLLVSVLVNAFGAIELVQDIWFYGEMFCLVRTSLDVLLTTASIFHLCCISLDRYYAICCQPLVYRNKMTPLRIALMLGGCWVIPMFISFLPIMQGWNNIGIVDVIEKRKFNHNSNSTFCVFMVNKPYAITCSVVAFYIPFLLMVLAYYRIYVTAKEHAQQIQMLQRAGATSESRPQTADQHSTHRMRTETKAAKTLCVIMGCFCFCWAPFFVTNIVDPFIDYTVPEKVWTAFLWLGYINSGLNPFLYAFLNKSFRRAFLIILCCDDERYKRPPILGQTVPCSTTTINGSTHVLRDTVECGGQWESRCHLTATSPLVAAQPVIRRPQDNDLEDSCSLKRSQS

On to `CC(C)n1c(=O)n(C(=O)NC[C@@H]2CCN3CCC[C@@H]23)c2ccccc21` (relative stereo) [Example 23, cis-N-[(hexahydro-1H-pyrrolizin-1-yl)methyl]-2,3-dihydro-3-(1-methylethyl)-2-oxo-1H-benzimidazole-1-carboxamide], for which, on 5-HT3 receptor, the pKi is 7.12. Moreover, the “Minimum Effective Dose (MED)” value with 5-HT3 is 1 mg/kg. Besides, the pEC50 at 5-HT4 receptor is 6.43.

As for `CN1C2CCCC1CC(NC(=O)c1nn(C)c3ccccc13)C2` (stereo not drawn) [BRL-43694], the “Minimum Effective Dose (MED)” value in the experiment on 5-HT3 is 0.05 mg/kg.

As to `CC(C)n1c(=O)n(C(=O)NCCC23CCCN2CCC3)c2ccccc21` [Example 13, N-[2-(hexahydro-7aH-pyrrolizin-7a-yl)ethyl]-2,3-dihydro-3-(1-methylethyl)-2-oxo-1H-benzimidazole-1-carboxamide], in the experiment on 5-HT3, the “Minimum Effective Dose (MED)” value was determined as 10 mg/kg.

Consider `CC(C)n1c(=O)n(C(=O)NC2C3CC4CC2CN(C4)C3)c2ccc(Cl)cc21` (stereo not drawn) [Example 17, N-(1-azatricyclo[3.3.1.1^3,7]decan-4-yl)-5-chloro-2,3-dihydro-3-(1-methylethyl)-2-oxo-1H-benzimidazole-1-carboxamide], for which the inhibition at 10 µM on 5-HT3 receptor (1 h, read-out: Effect of Compounds on [H]-GR65630 Bound (0.2 nM), % @ 10,000 nM) came to 41%.

In turn, `CC(C)n1c(=O)n(C(=O)NC2C3CC4CC2CN(C4)C3)c2cc(Cl)ccc21` (stereo not drawn) [Example 22B, N-(1-azatricyclo[3.3.1.1^3,7]decan-4-yl)-6-chloro-2,3-dihydro-3-(1-methylethyl)-2-oxo-1H-benzimidazole-1-carboxamide] showed a pKi on 5-HT3 receptor of 8.31.

Turning to `Cc1nc[nH]c1CCC(=O)c1cn(C)c2ccccc12` [GR65630], the “% Specific Binding” value at 5-HT3 receptor (radioligand, non-specific binding in the presence of 1 uM ICS 205-930) worked out at 70%.

As for `O=c1[nH]c2ccccc2n1CCCN1CCC(n2c(=O)[nH]c3cc(Cl)ccc32)CC1` [domperidone], the “Minimum Effective Dose (MED)” value in the experiment with 5-HT3 is over 10 mg/kg.

On to `CCC(CO)NC(=O)C1C=C2c3cccc4c3c(cn4C)CC2N(C)C1` (stereo not drawn) [methylsergide], for which the “Minimum Effective Dose (MED)” value in the experiment on 5-HT3 is recorded as over 10 mg/kg.

With `CCN(CC)CCNC(=O)c1cc(Cl)c(N)cc1OC` [metoclopramide], in the experiment with 5-HT3, the “Minimum Effective Dose (MED)” value came out at 5 mg/kg.

`CN1[C@@H]2C[C@@H](OC(=O)[C@H](CO)c3ccccc3)C[C@H]1[C@@H]1O[C@@H]12` [scopolamine]: the “Minimum Effective Dose (MED)” value with 5-HT3 was 2.5 mg/kg.

The pKi is the Ki on a negative log10 scale, so that one unit is a factor of ten. Higher therefore signals a low Ki. As usually defined, the pEC50 is the EC50 on a negative log10 scale, so that one unit is a factor of ten.
